Results from ChEMBL document CHEMBL5465560, “Selectivity Literature for EUbOPEN Chemogenomic Library” (2024).

Experiments:
[1] = biological target: Casein kinase II subunit alpha' (Homo sapiens) (UniProt P19784); assay: Selectivity interaction (Ambit KINOMEscan and KiNATiv profiling in Jurkat cells) EUB0000090b CSNK2A2; format: cell-based; settings: at 1 µM
[2] = biological target: T1, Non-receptor tyrosine-protein kinase TNK1 (Homo sapiens) (UniProt Q13470); assay: Selectivity interaction (KinomeScan (DiscoverX)) EUB0000595a TNK1; settings: at 10 µM
T1 sequence (whole entry): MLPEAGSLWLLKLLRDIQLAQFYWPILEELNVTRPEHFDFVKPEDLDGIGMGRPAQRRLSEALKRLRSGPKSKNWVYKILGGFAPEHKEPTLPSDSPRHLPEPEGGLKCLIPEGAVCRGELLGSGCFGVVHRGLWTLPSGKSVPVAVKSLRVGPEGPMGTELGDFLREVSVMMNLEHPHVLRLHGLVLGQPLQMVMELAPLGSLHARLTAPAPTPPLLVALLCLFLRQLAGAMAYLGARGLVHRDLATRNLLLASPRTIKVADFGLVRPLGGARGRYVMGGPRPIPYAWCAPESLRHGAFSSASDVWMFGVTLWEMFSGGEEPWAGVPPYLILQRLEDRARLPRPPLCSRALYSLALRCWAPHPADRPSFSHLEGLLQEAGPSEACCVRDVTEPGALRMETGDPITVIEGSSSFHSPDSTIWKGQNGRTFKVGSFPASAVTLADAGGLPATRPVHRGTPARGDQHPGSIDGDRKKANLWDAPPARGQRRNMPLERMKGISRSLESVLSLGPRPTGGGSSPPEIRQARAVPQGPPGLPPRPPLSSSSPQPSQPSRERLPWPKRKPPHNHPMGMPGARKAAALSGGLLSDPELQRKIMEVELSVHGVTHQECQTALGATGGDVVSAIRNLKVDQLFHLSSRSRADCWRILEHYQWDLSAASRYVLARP

[3] = biological target: T2, Mitogen-activated protein kinase kinase kinase 13 (Homo sapiens) (UniProt O43283); assay: Selectivity interaction (KinomeScan (DiscoverX)) EUB0000229b MAP3K13; settings: at 10 µM
T2 sequence (whole entry): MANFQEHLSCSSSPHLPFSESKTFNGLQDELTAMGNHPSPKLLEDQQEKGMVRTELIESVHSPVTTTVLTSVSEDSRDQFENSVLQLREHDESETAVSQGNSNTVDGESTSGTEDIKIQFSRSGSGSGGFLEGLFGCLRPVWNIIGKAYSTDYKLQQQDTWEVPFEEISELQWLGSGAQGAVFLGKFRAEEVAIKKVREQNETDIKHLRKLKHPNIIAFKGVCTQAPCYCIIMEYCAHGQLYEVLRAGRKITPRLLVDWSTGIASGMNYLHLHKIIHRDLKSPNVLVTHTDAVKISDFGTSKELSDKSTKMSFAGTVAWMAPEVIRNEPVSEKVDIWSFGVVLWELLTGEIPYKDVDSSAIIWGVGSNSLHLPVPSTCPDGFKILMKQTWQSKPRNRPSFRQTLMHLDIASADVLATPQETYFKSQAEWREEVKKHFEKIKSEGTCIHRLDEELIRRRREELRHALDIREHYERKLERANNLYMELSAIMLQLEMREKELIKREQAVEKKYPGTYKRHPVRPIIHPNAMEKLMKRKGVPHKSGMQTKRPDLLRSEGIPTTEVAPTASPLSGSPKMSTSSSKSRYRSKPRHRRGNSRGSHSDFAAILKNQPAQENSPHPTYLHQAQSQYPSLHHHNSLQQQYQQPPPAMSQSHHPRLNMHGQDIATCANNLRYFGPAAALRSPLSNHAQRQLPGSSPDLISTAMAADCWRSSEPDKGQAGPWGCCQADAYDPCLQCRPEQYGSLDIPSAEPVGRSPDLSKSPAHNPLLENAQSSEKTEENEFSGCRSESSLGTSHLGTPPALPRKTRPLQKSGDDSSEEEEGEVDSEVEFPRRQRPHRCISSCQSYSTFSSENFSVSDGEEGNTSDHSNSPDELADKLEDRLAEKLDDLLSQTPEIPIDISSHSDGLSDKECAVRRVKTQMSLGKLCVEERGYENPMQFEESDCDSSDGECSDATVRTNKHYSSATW

[4] = biological target: Serine/threonine-protein kinase 24 (Homo sapiens) (UniProt Q9Y6E0); assay: Selectivity interaction (ActivX KiNativ screen (ex vivo kinase selectivity in human PBMCs)) EUB0001619a STK24; format: cell-based; settings: PBMC, at 1 µM
[5] = biological target: T3, Myosin light chain kinase family member 4 (Homo sapiens) (UniProt Q86YV6); assay: Selectivity interaction (KinomeScan (DiscoverX)) EUB0000666a MYLK4; settings: at 10 µM
T3 sequence (whole entry): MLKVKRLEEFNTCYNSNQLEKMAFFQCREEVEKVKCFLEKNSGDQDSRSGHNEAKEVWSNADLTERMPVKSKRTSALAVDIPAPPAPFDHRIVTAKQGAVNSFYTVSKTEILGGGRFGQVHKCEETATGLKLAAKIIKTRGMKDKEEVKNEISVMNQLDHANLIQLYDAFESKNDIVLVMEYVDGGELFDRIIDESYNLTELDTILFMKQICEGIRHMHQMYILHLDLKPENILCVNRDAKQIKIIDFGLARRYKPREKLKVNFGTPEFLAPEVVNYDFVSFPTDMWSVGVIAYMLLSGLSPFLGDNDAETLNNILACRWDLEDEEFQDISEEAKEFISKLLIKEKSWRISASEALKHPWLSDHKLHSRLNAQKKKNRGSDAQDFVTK

Sequence of Serine/threonine-protein kinase 24 (Homo sapiens) (Q9Y6E0 whole entry, looked up): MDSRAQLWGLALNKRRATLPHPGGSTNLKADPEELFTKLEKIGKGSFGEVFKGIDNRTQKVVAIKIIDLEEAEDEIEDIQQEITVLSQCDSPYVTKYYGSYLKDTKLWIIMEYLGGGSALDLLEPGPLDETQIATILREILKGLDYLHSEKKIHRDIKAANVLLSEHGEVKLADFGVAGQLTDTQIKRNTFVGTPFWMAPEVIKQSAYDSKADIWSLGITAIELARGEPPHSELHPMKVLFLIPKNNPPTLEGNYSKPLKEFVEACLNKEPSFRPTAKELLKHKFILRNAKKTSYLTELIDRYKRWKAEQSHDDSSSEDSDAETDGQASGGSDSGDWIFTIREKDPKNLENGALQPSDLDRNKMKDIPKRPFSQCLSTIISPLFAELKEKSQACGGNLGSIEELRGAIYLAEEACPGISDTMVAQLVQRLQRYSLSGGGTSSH
Sequence of Casein kinase II subunit alpha' (Homo sapiens) (P19784 whole entry, looked up): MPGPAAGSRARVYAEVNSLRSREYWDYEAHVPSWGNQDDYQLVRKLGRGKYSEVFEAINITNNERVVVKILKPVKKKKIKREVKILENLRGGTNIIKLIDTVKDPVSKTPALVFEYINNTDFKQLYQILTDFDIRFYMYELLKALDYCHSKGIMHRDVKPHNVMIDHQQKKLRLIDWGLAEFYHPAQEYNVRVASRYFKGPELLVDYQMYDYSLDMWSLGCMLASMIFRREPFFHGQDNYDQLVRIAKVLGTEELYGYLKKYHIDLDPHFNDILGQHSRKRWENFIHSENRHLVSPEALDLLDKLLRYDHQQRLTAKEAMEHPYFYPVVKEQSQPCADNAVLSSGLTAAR

CN(C)C/C=C/C(=O)Nc1ccc(C(=O)N2CCCC(Nc3ncc(Cl)c(-c4c[nH]c5ccccc45)n3)C2)cc1 (stereo not given)
% of control [1]: 89%

COCC(=O)NC/C=C/c1ccc2ncnc(Nc3ccc(Oc4ccc(C)nc4)c(C)c3)c2c1 [CP-724714]
% of control [2]: 86%

COc1cc(N(C)c2ccnc3ccc(C(F)(F)F)cc23)cc(OC)c1OC
% binding [3]: 100%

N#Cc1cccc(-c2c[nH]c3ncnc(N4CCOCC4)c23)c1
% of inhibition [4]: 46%

O=C(NOC[C@H](O)CO)c1ccc(F)c(F)c1Nc1ccc(I)cc1F
% of control [5]: 100%
